The values that follow come from paper PMC5844890 (Scientific Reports, 2018).

Where two headings read alike, the source gives them in different places.

For one series, the system named is A2780AD cells. The experiment in a line: Anti-proliferative activity, A2780AD (MDR overexpressing P-glycoprotein) ovarian carcinoma cells. It is filed as cell-based, human. The settings on record: P-glycoprotein overexpressing resistant line, mean ± standard error of three independent experiments, read-out: A2780 AD IC50. The source says: (§1) One of the most relevant causes of tumor resistance to chemotherapy is the overexpression of membrane pumps which remove the chemotherapeutic agents from the treated cells.

The subject of a further series is A2780 cells. The experiment in a line: Anti-proliferative activity, A2780 ovarian carcinoma cells. In kind it is cell-based, human. The settings on record: mean ± standard error of three independent experiments.
Text: as §1

In series [1] the test system is MDA-MB-231 cells. The experiment in a line: Anti-proliferative activity, MDA-MB-231 breast carcinoma cells (Coulter counting). In kind it is cell-based. The settings on record: Homo sapiens, MDA-MB-231, 72 h, read-out: Tumor cells IC50 MDA-MB-231. The text has this: (§2) The anti-proliferative activity of the synthesized benzofurane derivatives was studied in three human cancer cell lines [breast carcinoma (MDA-MB-231), lymphoblastic leukemia (CEM) and cervical carcinoma (HeLa) cells] and one endothelial cell line [human microvascular endothelial cells (HMEC-1)].
(§3) The human microvascular endothelial cell line HMEC-1 was obtained at passage 12 from the Centers for Disease Control and Prevention (Atlanta, GA, USA) and used from passage 17 till 27. Human breast carcinoma (MDA-MB-231), human cervical carcinoma (HeLa) and human T-lymphoid (CEM) cells were obtained from ATCC (Middlesex, UK). Cell lines were maintained in culture for up to 3 months and grown in DMEM, supplemented with 10% FBS, 0.01 M Hepes and 1 mM sodium pyruvate. All cells were cultured in a humidified 5% CO2 incubator at 37 °C.
(§4) HMEC-1 cells were seeded in 48-well plates at 20,000 cells/well. After 24 h, 5-fold dilutions of the compounds were added. The cells were allowed to proliferate 4 days in the presence of the compounds, trypsinized, and counted by means of a Coulter counter (Analis, Belgium). HeLa and MDA-MB-231 cells were seeded in 48-well plates at 10,000 cells/well. After 24 h, different concentrations of the compounds were added. After 3 days of incubation, the cells were trypsinized and counted in a Coulter counter. Suspension cells (human lymphoid Cem cells) were seeded in 96-well plates at 60,000 cells/well in the presence of different concentrations of the compounds, allowed to proliferate for 96 h, and counted in a Coulter counter. The 50% inhibitory concentration (IC50) was defined as the compound concentration required to reduce cell proliferation by 50%.

The subject of series [2] is HMEC-1 cells. The experiment in a line: Anti-proliferative activity, HMEC-1 microvascular endothelial cells (Coulter counting). In kind it is cell-based. Particulars: Homo sapiens, HMEC-1, 96 h, read-out: Endothelial cells IC50 HMEC-1.
Text: as §2, §3, §4

The next series deals with CEM cells. The experiment in a line: Anti-proliferative activity, CEM lymphoblastic leukemia cells (Coulter counting). Particulars: Homo sapiens, CCRF-CEM, 96 h, read-out: Tumor cells IC50 CEM. It is filed as cell-based.
Text: as §2, §3, §4

For a further series, the system named is HeLa cells. The experiment in a line: Anti-proliferative activity, HeLa cervical carcinoma cells (Coulter counting). It is filed as cell-based. The settings on record: Homo sapiens, 72 h, read-out: Tumor cells IC50 HeLa.
Text: as §2, §3, §4

Series [3] deals with HMEC-1 cells. The experiment in a line: IncuCyte scratch wound migration assay with PI uptake. It is filed as cell-based. The procedure:
Proper tubulin organization is not only required for cell division but also for cell motility and migration. Therefore, we evaluated the capacity of the compounds to inhibit the migration of HMEC-1 endothelial cells. To this end, we used the 96-well IncuCyte® scratch wound assay. After the creation of a cell-free zone (wound) in a confluent cell monolayer, compounds were added, and relative wound density was measured every minute and visualized in time-course plots. PI was added to all wells to visualize toxicity over time, i.e. only dead cells take up this cell-impermeable dye.
Figure 7 Inhibition of HMEC-1 migration. The 96-well IncuCyte® scratch wound assay was used to create a cell-free zone (wound) in a confluent cell monolayer. Next, compounds were added and the relative wound density was measured every minute and visualized in time-course plots (left panels). PI is added to all wells to visualize toxicity over time, i.e. only dead cells take up this cell-impermeable dye (right panels). Average ± SEM (n = 3) are shown.
Wounds were created in confluent HMEC-1 cells by means of the “Incucyte® wound maker”. Next, different concentrations of compound and PI were added and images were taken every 2 min for the duration of the experiment. The algorithm masks each phase-contrast image to identify the position of the wounded (cell-free) and unwounded (cell-occupied) zones. Relative wound density is calculated and visualized in time-course plots.

For series [4], the system named is MDA-MB-231 cells. The experiment in a line: Cell cycle analysis (propidium iodide, flow cytometry). In kind it is cell-based, human. The settings on record: 0.3 µM, 24 h treatment. Here is the method: Tubulin-binding agents interfere with mitotic spindle formation during cell division. […] Thus, we investigated whether 27 and 28 affect the progression of human breast cancer MDA-MB-231 cells through the cell cycle. […] In contrast, compounds 27 and 28 arrested the cell cycle in the M phase (mitosis) at concentrations as low as 0.03 and 0.1 μM (for compound 27 and 28 respectively).
(§5) Figure 6 Mechanism of action of the benzofurane derivatives. (A) Inhibition of cell cycle progression. MDA-MB-231 cells were treated with DMSO (control) or compounds 8, 27 or 28 for 24 h. Next, the cells were harvested, stained with propidium iodide (PI), and cell cycle distribution was evaluated by flow cytometry. Percentages of cells in the different phases of the cell cycle are indicated. (B) Caspase-3 activity. MDA-MB-231 cells were seeded in 48-well plates at 40,000 cells/cm². After 24 h, different concentrations of compounds 8, 27 or 28 and 2 µM of the caspase-3 substrate DEVD-NucView488 were added. After 16 h, the cells were incubated with 2 µg/ml Hoechst 33342 to stain the nucleus, and imaged. (C) Disruption of the vascular network. HMEC-1 cells were cultured on matrigel for 3 h to allow the formation of tube-like structures. Next, different concentrations of compounds were added. Upper panel: After 90 min, pictures were taken and the tubular network was scored (3: intact network, 0: network completely destroyed). Bars show average ± SEM (n = 4). Lower panel: Microscopic pictures of the tubular network 3 h after addition of compound.
MDA-MB-231 cells were seeded in 6-well plates at 125,000 cells/well in DMEM with 10% FBS. After 24 h, the cells were exposed to different concentrations of the compounds. After 24 h, the DNA of the cells was stained with propidium iodide using the CycleTEST PLUS DNA Reagent Kit (BD Biosciences, San Jose, CA). The DNA content of the stained cells was assessed by flow cytometry on a FACSCalibur flow cytometer and analyzed with CellQuest software (BD Biosciences) within 3 h after staining. Cell debris and clumps were excluded from the analysis by appropriate dot plot gating. Percentages of sub-G1, G1, S, and G2/M cells were estimated using appropriate region markers.
A general note: A flow cytometer gives signals particle by particle.

The test system of series [5] is MDA-MB-231 cells. The experiment in a line: Caspase-3 activity / apoptosis in live cells (fluorescence microscopy). In kind it is cell-based, human. Particulars: 1 µM, after 24 h. Here is the method: as §5
To confirm the capacity of compounds 27 and 28 to induce apoptosis, MDA-MB-231 cells were treated with the compounds for 24 h in the presence of NucView® 530 Caspase-3. This substrate is cleaved by active caspase-3 activity (the main executioner enzyme during apoptosis) to generate a fluorescent derivative that is analyzed using fluorescence microscopy.
MDA-MB-231 cells were seeded at 40,000 cells/cm². After 24 h, cells were incubated in Fluorobrite DMEM (Gibco), containing the compound and 2 µM of the caspase-3 substrate DEVD-NucView488 (Biotium, Hayward, CA). After 16 h, the DNA was stained with Hoechst33342 and the cells were imaged by fluorescence microscopy.

Another series concerns αβ-tubulin. The settings on record: relative to prototypes 7 and 8; cited from earlier work.
The subject of series [6] is tumor and endothelial cells. More on the design: method as in PMID 24773591. Particulars: relative to prototypes 7 and 8; cited from earlier work.
Where [7] appears, read: mean ± SD of three independent experiments, 3 days of incubation.
Where [8] appears, read: mean ± SD of three independent experiments, 4 days.
Where [9] appears, read: mean ± SD of three independent experiments.

A word on the IC50: it is the concentration that inhibits the measured activity by half. As for `COc1cc([C@@H]2c3cc4c(cc3[C@H](O)[C@H]3COC(=O)[C@H]23)OCO4)cc(OC)c1OC` [Podophillotoxin, reference compound], the half-maximal inhibitory concentration (IC50) was 74 ± 12 nM in the series with A2780AD cells and 64 ± 9 nM in the series with A2780 cells.

A word on the melting point: it is the temperature, or range, at which the solid turns liquid. `CC(Nc1cccc2cc(CO)oc12)=C1C(=O)CC(c2ccccc2)CC1=O` (stereo not drawn) [Compound 22, 2-(1-((2-(Hydroxymethyl)benzofuran-7-yl)amino)ethylidene)-5-phenylcyclohexane-1,3-dione] displayed a melting point of 120 to 122 °C. Also, the IC50 with MDA-MB-231 cells [1] (setting [7]) amounted to 15 ± 2 nM. In addition, the IC50 with HMEC-1 cells [2] (setting [8]) is 150 ± 50 nM. In addition, in the series on CEM cells (setting [9]), the IC50 amounted to 40 ± 2 nM. In the series on HeLa cells (setting [7]), the IC50 is 140 ± 40 nM.

Consider `CNC(=O)c1cc2cccc(NC(C)=C3C(=O)CC(c4ccccc4)CC3=O)c2o1` (stereo not drawn) [Compound 21, 7-((1-(2,6-Dioxo-4-phenylcyclohexylidene)ethyl)amino)-N-methylbenzofuran-2-carboxamide], for which the melting point lay within 108 to 110 °C. In addition, the IC50 with MDA-MB-231 cells [1] (setting [7]) came out at 1500 ± 600 nM. Further, the IC50 in the series on HMEC-1 cells [2] (setting [8]) is 14000 ± 11000 nM. Also, in the series on CEM cells (setting [9]), the IC50 turned out to be 5500 ± 1700 nM. The IC50 with HeLa cells (setting [7]) amounted to 12000 ± 6000 nM.

Take `CCOc1ccccc1NC(C)=C1C(=O)CC(c2ccccc2)CC1=O` (stereo not drawn) [Compound 8]: the IC50 in the series on MDA-MB-231 cells [1] is 68 ± 5 nM; in the series with HMEC-1 cells [2], 100 ± 20 nM; in the series with CEM cells, 190 ± 10 nM; in the series with A2780AD cells (Homo sapiens, A2780AD), 111 ± 16 nM; in the series with HeLa cells it was 180 nM; in the series with A2780 cells (Homo sapiens, A2780), 116 ± 8 nM. Moreover, the “lowest concentration inhibiting wound closure” value in the series with HMEC-1 cells [3] is on record as 0.5 µM. Moreover, the “uptake of PI (toxicity)” value in the series on HMEC-1 cells [3] (at the lowest concentration inhibiting wound closure (0.5, 0.06 and 0.06 µM)) is recorded as “No increased uptake of PI”. For the same compound, in the series with MDA-MB-231 cells [4], the cell cycle arrest result is on record as “no longer active”. Besides, the “apoptotic rate (apoptotic cells, caspase-3 substrate)” value in the series on MDA-MB-231 cells [5] is 9%.

Take `COc1ccc(/C=C\c2cc(OC)c(OC)c(OC)c2)cc1OP(=O)(O)O` [CA-4P, reference compound]: the IC50 is 2.1 ± 0.3 nM in the series on MDA-MB-231 cells [1], 2.9 ± 0.1 nM with HMEC-1 cells [2], 11 ± 1 nM with CEM cells and 13 ± 1 nM in the series on HeLa cells.

`CC(=O)O[C@H]1C(=O)[C@@]2(C)[C@H]([C@H](OC(=O)c3ccccc3)[C@]3(O)C[C@H](OC(=O)[C@H](O)[C@@H](NC(=O)c4ccccc4)c4ccccc4)C(C)=C1C3(C)C)[C@]1(OC(C)=O)CO[C@@H]1C[C@@H]2O` [Paclitaxel, reference compound]: the IC50 with A2780AD cells (Homo sapiens, A2780AD) is 2100 ± 300 nM; with A2780 cells (Homo sapiens, A2780), 1 ± 0.1 nM.

`COC(=O)c1cc2cccc(NC(C)=C3C(=O)CC(c4ccccc4)CC3=O)c2o1` (stereo not drawn) [Compound 20, Methyl 7-((1-(2,6-dioxo-4-phenylcyclohexylidene)ethyl)amino)benzofuran-2-carboxylate] showed a melting point of 178 to 180 °C. In addition, the IC50 in the series with MDA-MB-231 cells [1] (setting [7]) came to 170 ± 10 nM. Also, the IC50 in the series with HMEC-1 cells [2] (setting [8]) worked out at 1600 ± 600 nM. Moreover, the half-inhibitory concentration (IC50) with CEM cells (setting [9]) turned out to be 640 ± 360 nM. Also, the IC50 in the series on A2780AD cells (Homo sapiens, A2780AD) was 660 ± 50 nM. Moreover, in the series on HeLa cells (setting [7]), the IC50 worked out at 890 ± 30 nM. Further, in the series with A2780 cells (Homo sapiens, A2780), half-maximal inhibition (IC50) was put at 440 ± 20 nM.

`CCC(Nc1ccccc1O)=C1C(=O)CC(c2ccccc2)CC1=O` (stereo not drawn) [Compound 9]: in the series on αβ-tubulin, the “fold less active in tubulin binding” value is reported as 100 fold. Further, the “fold less active in antiproliferative assays” value in series [6] is reported as 100 fold.

Take `CC(Nc1cccc2cc(C)oc12)=C1C(=O)CC(c2ccccc2)CC1=O` (stereo not drawn) [Compound 14, 2-(1-((2-Methylbenzofuran-7-yl)amino)ethylidene)-5-phenylcyclohexane-1,3-dione]: the melting point was in the range of 127 to 129 °C. In the series on MDA-MB-231 cells [1] (setting [7]), the IC50 was determined as 53 ± 6 nM. Further, in the series with HMEC-1 cells [2] (setting [8]), the IC50 was 65 ± 3 nM. The IC50 with CEM cells (setting [9]) was found to be 38 ± 1 nM. For the same compound, the IC50 in the series with HeLa cells (setting [7]) is 160 ± 10 nM.
